For one assay, the system named is hIL-6 mRNA. Briefly: Inhibition of hIL-6 mRNA transcription in LPS-stimulated U937 macrophages. It counts as cell-based, Human. Particulars: 1 h pretreatment, LPS 3 h; for IC50: Homo sapiens, U-937, PMA-differentiated U937 cells, read-out: IL-6 activity. The gist of the method: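 PMA-differentiated U937 macrophages (60 ng/mL PMA, 3 days) pretreated 1 h with compound in 0.1% DMSO, then stimulated with 1 ug/mL E. coli LPS for 3 h at 37° C. IL-6 mRNA quantified by one-step TaqMan qRT-PCR, normalized to cyclophilin; fold expression relative to control, triplicate wells.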

The target in assay [1] is Brd4 bromodomain 1 (BRD4(1)) (Homo sapiens, UniProt O60885). Kind of assay: Inhibition of tetra-acetylated histone H4 binding to Brd4 bromodomain 1, measured by FRET (HTRF). The note with it: 2 h at room temperature. Also noted: made in house; host or cells: E. coli BL21(DE3). The method, boiled down: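 Inhibition was read as a drop in 665 nm relative to 620 nm HTRF signal after 2 h at room temperature, with IC50 from dose-response curves in duplicate wells. Reactions held 200 nM E. coli-expressed His-tagged bromodomain and 25-50 nM biotinylated tetra-acetylated histone H4 peptide. Buffer was 30 mM HEPES pH 7.4 with KF, CHAPS, BSA and 0.2% DMSO.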
(Time-resolved FRET reads energy transfer from a long-lived donor to a nearby acceptor.)

In assay [2] the test system is c-myc in Human AML MV4-11 cells. Kind of assay: Inhibition of cMYC expression (mRNA, real-time PCR) in MV4-11 cells. It counts as cell-based. Particulars: 3 h treatment, cMYC mRNA by real-time PCR. The gist of the method:
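MV4-11 cells in IMDM with 10% FBS were treated with increasing compound concentrations (DMSO 0.1%) for 3 h at 37 °C, in triplicate. Isolated mRNA was quantified by one-step TaqMan RT-qPCR, cMYC Ct normalized to cyclophilin, and fold expression given relative to DMSO control.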

The subject of a further assay is Human AML MV-4-11 cells. Kind of assay: Inhibition of cell proliferation in MV4-11 cells (CellTiter Aqueous One). Type of assay: cell-based. The note with it: MV4-11, 72 h. The method, boiled down: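 MV4-11 cells, 5×10^4 per well in IMDM with 10% FBS, were exposed to increasing compound concentrations or 0.1% DMSO for 72 h at 37 °C in triplicate. Viability was read by MTS (CellTiter Aqueous One) absorbance at 490 nm after 3-4 h. IC50 was derived from background-corrected signal relative to DMSO.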

In a further assay the test system is hIL-17 mRNA. Briefly: Inhibition of hIL-17 mRNA transcription in OKT3-stimulated peripheral blood mononuclear cells. Type of assay: cell-based. Particulars: human PBMC, OKT3 stimulation 6 h, read-out: IL-17 Activity. The procedure:
Human peripheral blood mononuclear cells were plated (2.0×10^5 cells per well) in a 96-well plate in 45 μL OpTimizer T Cell expansion media (Life Technologies) containing 20 ng/ml IL-2 and penicillin/streptomycin. The cells were treated with increasing concentrations of the test compound or DMSO (0.1%), and incubated at 37° C., 5% CO2 for 1 h before addition of 10× stock OKT3 antibody at 10 ug/ml in media. Triplicate wells were used for each concentration. Cells were incubated at 37° C., 5% CO2 for 6 h before the cells were harvested. At time of harvest, cells were pelleted by centrifugation at 800 rpm for 5 min. Cells were harvested using the mRNA Catcher PLUS kit according to manufacturer's instructions. The eluted mRNA was then used in a one-step quantitative real-time PCR reaction, using components of the RNA UltraSense™ One-Step Kit (Life Technologies) together with Applied Biosystems TaqMan® primer-probes for hIL-17 and Cyclophilin. Real-time PCR plates were run on a ViiA™7 real time PCR machine (Applied Biosystems), data was analyzed, normalizing the Ct values for hIL-17 to an internal control, prior to determining the fold induction of each unknown sample, relative to the control.

Some results are limits rather than exact numbers.

`Cc1noc(C)c1-c1cc(-c2c(C)noc2C)c2[nH]ncc2c1` [Example Compound 21, 4,4′-(1H-indazole-5,7-diyl)bis(3,5-dimethylisoxazole)]: the IC50 in the assay with hIL-6 mRNA is 0.3 to 3 µM; in assay [1], not above 0.3 µM; in assay [2], 0.3 to 3 µM; in the assay with Human AML MV-4-11 cells it was 0.3 to 3 µM; in the assay on hIL-17 mRNA, 0.3 to 3 µM.
As for `Cc1ccncc1-c1cc(-c2c(C)noc2C)cc2[nH]cnc12` [Example Compound 20, 3,5-dimethyl-4-(4-(4-methylpyridin-3-yl)-1H-benzo[d]imidazol-6-yl)isoxazole], the IC50 in the assay with hIL-6 mRNA was not above 0.3 µM; in assay [1], not above 0.3 µM; in assay [2] it was 0.3 to 3 µM; with Human AML MV-4-11 cells, 0.3 to 3 µM; with hIL-17 mRNA, 0.3 to 3 µM.
Turning to `COc1ncccc1-c1cc(-c2c(C)noc2C)cc2[nH]cnc12` [Example Compound 48, 4-(4-(2-methoxy-pyridin-3-yl)-1H-benzo[d]imidazol-6-yl)-3,5-dimethyl isoxazole], the IC50 in assay [1] is not above 0.3 µM; in assay [2] it was 0.3 to 3 µM; in the assay on Human AML MV-4-11 cells it was 0.3 to 3 µM; in the assay on hIL-17 mRNA, 0.3 to 3 µM.
Turning to `Cc1nc2c(-c3c(C)noc3C)cc(-c3c(C)cnn3C)cc2[nH]1` [Example Compound 178, 4-(6-(1,4-dimethyl-1H-pyrazol-5-yl)-2-methyl-1H-benzo[d]imidazol-4-yl)-3,5-dimethylisoxazole], the IC50 in the assay with hIL-6 mRNA is 0.3 to 3 µM; in assay [1], 0.3 to 3 µM; in assay [2], 0.3 to 3 µM; with Human AML MV-4-11 cells, 3 to 30 µM; in the assay with hIL-17 mRNA, not above 0.3 µM.
Turning to `Cc1nc2c(-c3ccc4sncc4c3)cc(-c3c(C)noc3C)cc2[nH]1` [Example Compound 137, 4-(4-(benzo[d]isothiazol-5-yl)-2-methyl-1H-benzo[d]imidazol-6-yl)-3,5-dimethyl isoxazole], the IC50 was 0.3 to 3 µM in the assay with hIL-6 mRNA; not above 0.3 µM in assay [1]; 0.3 to 3 µM in assay [2]; 0.3 to 3 µM in the assay on Human AML MV-4-11 cells; 0.3 to 3 µM in the assay on hIL-17 mRNA.
On to `Cc1noc(C)c1Nc1cc(-c2c(C)noc2C)cc2[nH]cnc12` [Example Compound 42, N-(6-(3,5-dimethyl-isoxazol-4-yl)-1H-benzo[d]imidazol-4-yl)-3,5-dimethyl-isoxazol-4-amine], for which the IC50 in the assay on hIL-6 mRNA was not above 0.3 µM; in assay [1], not above 0.3 µM; in assay [2], not above 0.3 µM; in the assay on Human AML MV-4-11 cells it was not above 0.3 µM; in the assay with hIL-17 mRNA, 0.3 to 3 µM.
Turning to `Cc1noc(C)c1-c1cc2c(c(-c3c(C)noc3C)c1)OCC(=O)N2` [Example Compound 11, 6,8-bis(3,5-dimethylisoxazol-4-yl)-2H-benzo[b][1,4]oxazin-3(4H)-one], the IC50 is 0.3 to 3 µM with hIL-6 mRNA; not above 0.3 µM in assay [1]; 0.3 to 3 µM in assay [2]; 0.3 to 3 µM with Human AML MV-4-11 cells; 0.3 to 3 µM in the assay on hIL-17 mRNA.
Consider `CCOc1nc2c(-c3cccnc3C)cc(-c3c(C)noc3C)cc2[nH]1` [Example Compound 81, 4-(2-ethoxy-4-(2-methylpyridin-3-yl)-1H-benzo[d]imidazol-6-yl)-3,5-dimethyl isoxazole], for which the IC50 in the assay on hIL-6 mRNA was 0.3 to 3 µM; in assay [1], not above 0.3 µM; in assay [2] it was not above 0.3 µM; in the assay with Human AML MV-4-11 cells, not above 0.3 µM; in the assay on hIL-17 mRNA, not above 0.3 µM.
For `Cc1noc(C)c1-c1cc(-c2c(C)noc2C)c2nc(C(C)C)[nH]c2c1` [Example Compound 45, 4,4′-(2-isopropyl-1H-benzo[d]imidazole-4,6-diyl)bis(3,5-dimethylisoxazole)], the IC50 in assay [1] was not above 0.3 µM; in assay [2], 0.3 to 3 µM; with Human AML MV-4-11 cells, 0.3 to 3 µM; with hIL-17 mRNA, 0.3 to 3 µM.
Take `Cc1noc(C)c1-c1cc(-c2cccc(C(N)=O)c2C)c2nc[nH]c2c1` [Example Compound 73, 3-(6-(3,5 dimethyl-isoxazol-4-yl)-1H-benzo[d]imidazol-4-yl)-2-methyl-benzamide]: the IC50 in the assay with hIL-6 mRNA was not above 0.3 µM; in assay [1] it was not above 0.3 µM; in assay [2], not above 0.3 µM; in the assay on Human AML MV-4-11 cells, not above 0.3 µM; with hIL-17 mRNA it was 0.3 to 3 µM.
Regarding `Cc1nc2c(-c3ccc(N)nc3C)cc(-c3c(C)noc3C)cc2[nH]1` [Example Compound 68, 5-(6-(3,5-dimethyl-isoxazol-4-yl)-2-methyl-1H-benzo[d]imidazol-4-yl)-6-methyl-pyridin-2-amine], the IC50 (in the assay on hIL-6 mRNA; in assay [1]; in assay [2]; in the assay on Human AML MV-4-11 cells; in the assay with hIL-17 mRNA) was not above 0.3 µM each time.
On to `Cc1nc2c(-c3cc(C#N)ccc3C)cc(-c3c(C)noc3C)cc2[nH]1` [Example Compound 58, 3-(6-(3,5-dimethyl-isoxazol-4-yl)-2-methyl-1H-benzo[d]imidazol-4-yl)-4-methyl-benzonitrile], for which the IC50 with hIL-6 mRNA was not above 0.3 µM; in assay [1], not above 0.3 µM; in the assay with Human AML MV-4-11 cells, not above 0.3 µM; in the assay on hIL-17 mRNA it was 0.3 to 3 µM.
On to `Cc1noc(C)c1-c1cc(Nc2ccccc2)c2nc[nH]c2c1` [Example Compound 7, 6-(3,5-dimethylisoxazol-4-yl)-N-phenyl-1H-benzo[d] imidazol-4-amine], for which the IC50 was not above 0.3 µM in the assay with hIL-6 mRNA; not above 0.3 µM in assay [1]; 0.3 to 3 µM in assay [2]; 0.3 to 3 µM in the assay on Human AML MV-4-11 cells; 0.3 to 3 µM with hIL-17 mRNA.
As for `Cc1noc(C)c1-c1cc(-c2c(C)noc2C)c2c(C)c[nH]c2c1` [Example Compound 140, 4,4′-(3-methyl-1H-indole-4,6-diyl)bis(3,5-dimethylisoxazole)], the IC50 in the assay with hIL-6 mRNA was not above 0.3 µM; in assay [1], not above 0.3 µM; in assay [2], not above 0.3 µM; in the assay with Human AML MV-4-11 cells it was not above 0.3 µM; in the assay with hIL-17 mRNA, 0.3 to 3 µM.
For `Cc1noc(C)c1-c1cc2c(c(-c3c(C)noc3C)c1)OCCN2` [Example Compound 13, 6,8-bis(3,5-dimethylisoxazol-4-yl)-3,4-dihydro-2H-benzo[b][1,4]oxazine], the IC50 in the assay with hIL-6 mRNA is 0.3 to 3 µM; in assay [1], not above 0.3 µM; in assay [2], 0.3 to 3 µM; in the assay with Human AML MV-4-11 cells, 0.3 to 3 µM; in the assay on hIL-17 mRNA, 0.3 to 3 µM.
As to `Cc1nc2c(-c3cccnc3C(F)(F)F)cc(-c3c(C)noc3C)cc2[nH]1` [Example Compound 59, 3,5-dimethyl-4-(2-methyl-4-(2-(trifluoro-methyl)pyridin-3-yl)-1H-benzo[d]imidazol-6-yl)isoxazole], the IC50 is not above 0.3 µM with hIL-6 mRNA, not above 0.3 µM in assay [1], not above 0.3 µM in the assay with Human AML MV-4-11 cells and 0.3 to 3 µM with hIL-17 mRNA.
Consider `CNC(=O)c1onc(C)c1-c1cc(-c2c(C)noc2C)cc2[nH]c(C)nc12` [Example Compound 67, 4-(5-(3,5-dimethyl-isoxazol-4-yl)-2-methyl-1H-benzo[d]imidazol-7-yl)-N,3-dimethyl isoxazole-5-carboxamide], for which, in the assay on hIL-6 mRNA (PMA-differentiated U937 cells), the IL-6 activity result was “Not active”. In addition, the results for the IC50 (in assay [1]; in assay [2]; in the assay on Human AML MV-4-11 cells) were not above 0.3 µM, 0.3 to 3 µM and 3 to 30 µM, respectively.
Consider `Cc1nc2c(-c3cscc3C)cc(-c3c(C)noc3C)cc2[nH]1` [Example Compound 166, 3,5-dimethyl-4-(2-methyl-4-(4-methyl-thiophen-3-yl)-1H-benzo[d]imidazol-6-yl)isoxazole], for which the IC50 is 0.3 to 3 µM in the assay on hIL-6 mRNA, not above 0.3 µM in assay [1], 0.3 to 3 µM in assay [2] and 0.3 to 3 µM in the assay on Human AML MV-4-11 cells.
In the case of `Cc1noc(C)c1-c1cc(-c2cccc3c2cnn3C)c2nc[nH]c2c1` [Example Compound 23, 3,5-dimethyl-4-(4-(1-methyl-1H-indazol-4-yl)-1H-benzo[d]imidazol-6-yl)isoxazole], the IC50 in the assay on hIL-6 mRNA is not above 0.3 µM; in assay [1], not above 0.3 µM; in assay [2], 0.3 to 3 µM; with Human AML MV-4-11 cells, 0.3 to 3 µM.

These data come from patent publication US9999616B2 (ZENITH EPIGENETICS LTD., priority 2013, dated 2018).
